In PubChem BioAssay (NCI):
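Briefly, cells in 96-well plates were exposed to five compound concentrations for 48 h, and endpoints were estimated by linear interpolation. Definition used: TGI = concentration required for complete inhibition of growth.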

What was measured:
Assay in all cases: growth of human tumour cells (NCI), 48 h
HS 578T breast = system: HS 578T breast
ACHN renal = system: ACHN renal
SK-MEL-2 melanoma = system: SK-MEL-2 melanoma
MDA-MB-231 breast = system: MDA-MB-231 breast
RXF 393 renal = system: RXF 393 renal
NCI-H23 lung = system: NCI-H23 lung
IGROV1 ovarian = system: IGROV1 ovarian
OVCAR-8 ovarian = system: OVCAR-8 ovarian
CCRF-CEM leukemia = system: CCRF-CEM leukemia
NCI/ADR-RES ovarian = system: NCI/ADR-RES ovarian
COLO 205 colon = system: COLO 205 colon
SN12C renal = system: SN12C renal
SF-295 CNS = system: SF-295 CNS
M14 melanoma = system: M14 melanoma
SF-268 CNS = system: SF-268 CNS
BT-549 breast = system: BT-549 breast
HCC-2998 colon = system: HCC-2998 colon
EKVX NSCLC = system: EKVX NSCLC
HT29 colon = system: HT29 colon
OVCAR-4 ovarian = system: OVCAR-4 ovarian
786-0 renal = system: 786-0 renal
DU-145 prostate = system: DU-145 prostate
SK-OV-3 ovarian = system: SK-OV-3 ovarian
PC-3 prostate = system: PC-3 prostate
NCI-H460 lung = system: NCI-H460 lung
A549 NSCLC = system: A549 NSCLC
OVCAR-3 ovarian = system: OVCAR-3 ovarian
UACC-257 melanoma = system: UACC-257 melanoma
NCI-H522 lung = system: NCI-H522 lung
HCT-15 colon = system: HCT-15 colon
U251 CNS = system: U251 CNS
KM12 colon = system: KM12 colon
SK-MEL-28 melanoma = system: SK-MEL-28 melanoma
OVCAR-5 ovarian = system: OVCAR-5 ovarian
SW-620 colon = system: SW-620 colon
SNB-19 CNS = system: SNB-19 CNS
HOP-92 NSCLC = system: HOP-92 NSCLC
MDA-MB-435 = system: MDA-MB-435
UO-31 renal = system: UO-31 renal
UACC-62 melanoma = system: UACC-62 melanoma
SK-MEL-5 melanoma = system: SK-MEL-5 melanoma
SF-539 CNS = system: SF-539 CNS
MDA-N = system: MDA-N
MOLT-4 leukemia = system: MOLT-4 leukemia
TK-10 renal = system: TK-10 renal
MCF7 breast = system: MCF7 breast
HOP-62 NSCLC = system: HOP-62 NSCLC
CAKI-1 renal = system: CAKI-1 renal
HCT-116 colon = system: HCT-116 colon
SNB-75 CNS = system: SNB-75 CNS
HL-60(TB) leukemia = system: HL-60(TB) leukemia
SR leukemia = system: SR leukemia
NCI-H226 lung = system: NCI-H226 lung
T-47D breast = system: T-47D breast
LOX IMVI melanoma = system: LOX IMVI melanoma
RPMI-8226 leukemia = system: RPMI-8226 leukemia
A498 renal = system: A498 renal

CC(O)CCCCC(O)CCC[C@H](O)[C@H]1CCC([C@H]2CCC([C@@H](O)CCCCCCCCCCCCC3=C[C@H](C)OC3=O)O2)O1 (some centres not stated)
TGI (HS 578T breast): 29 µM
TGI (ACHN renal): 21.1 µM
TGI (SK-MEL-2 melanoma): 18.3 µM
TGI (MDA-MB-231 breast): 21.6 µM
TGI (RXF 393 renal): 22.5 µM
TGI (NCI-H23 lung): 19.5 µM
TGI (IGROV1 ovarian): 21.1 µM
TGI (OVCAR-8 ovarian): 21.7 µM
TGI (CCRF-CEM leukemia): 31.7 µM
TGI (NCI/ADR-RES ovarian): 15.4 µM
TGI (COLO 205 colon): 23.7 µM
TGI (SN12C renal): 22.9 µM
TGI (SF-295 CNS): 18.7 µM
TGI (M14 melanoma): 21.4 µM
TGI (SF-268 CNS): 22.4 µM
TGI (BT-549 breast): 21.3 µM
TGI (HCC-2998 colon): 23.9 µM
TGI (EKVX NSCLC): 17.4 µM
TGI (HT29 colon): 20.7 µM
TGI (OVCAR-4 ovarian): 25.9 µM
TGI (786-0 renal): 25.9 µM
TGI (DU-145 prostate): 23.2 µM
TGI (SK-OV-3 ovarian): 22.1 µM
TGI (PC-3 prostate): 21.2 µM
TGI (NCI-H460 lung): 18.1 µM
TGI (A549 NSCLC): 17.6 µM
TGI (OVCAR-3 ovarian): 19.1 µM
TGI (UACC-257 melanoma): 20.7 µM
TGI (NCI-H522 lung): 16.7 µM
TGI (HCT-15 colon): 25.5 µM
TGI (U251 CNS): 20.6 µM
TGI (KM12 colon): 16.2 µM
TGI (SK-MEL-28 melanoma): 23.9 µM
TGI (OVCAR-5 ovarian): 22 µM
TGI (SW-620 colon): 23.4 µM
TGI (SNB-19 CNS): 20.2 µM
TGI (HOP-92 NSCLC): 21.6 µM
TGI (MDA-MB-435): 18.5 µM
TGI (UO-31 renal): 19 µM
TGI (UACC-62 melanoma): 21 µM
TGI (SK-MEL-5 melanoma): 17.2 µM
TGI (SF-539 CNS): 20.6 µM
TGI (MDA-N): 22 µM
TGI (MOLT-4 leukemia): 20.1 µM
TGI (TK-10 renal): 19.6 µM
TGI (MCF7 breast): 16.3 µM
TGI (HOP-62 NSCLC): 20.7 µM
TGI (CAKI-1 renal): 21.1 µM
TGI (HCT-116 colon): 15.5 µM
TGI (SNB-75 CNS): 18.9 µM
TGI (HL-60(TB) leukemia): 26.9 µM
TGI (SR leukemia): 20.5 µM
TGI (NCI-H226 lung): 19.5 µM

Cc1cc(C)c(C(=O)c2nnc3ccccc3c2N)c(C)c1
TGI (T-47D breast): 56.6 µM
TGI (HS 578T breast): 57.3 µM
TGI (ACHN renal): > 100 µM
TGI (SK-MEL-2 melanoma): 31.9 µM
TGI (MDA-MB-231 breast): 63.8 µM
TGI (NCI-H23 lung): > 100 µM
TGI (IGROV1 ovarian): 46.7 µM
TGI (CCRF-CEM leukemia): > 100 µM
TGI (NCI/ADR-RES ovarian): 74.2 µM
TGI (COLO 205 colon): 30.2 µM
TGI (SN12C renal): 38.5 µM
TGI (M14 melanoma): 34 µM
TGI (LOX IMVI melanoma): 34.9 µM
TGI (RPMI-8226 leukemia): > 100 µM
TGI (SF-268 CNS): > 100 µM
TGI (BT-549 breast): > 100 µM
TGI (HT29 colon): 76.8 µM
TGI (786-0 renal): 32.2 µM
TGI (DU-145 prostate): 84 µM
TGI (SK-OV-3 ovarian): > 100 µM
TGI (PC-3 prostate): 56.9 µM
TGI (A549 NSCLC): > 100 µM
TGI (OVCAR-3 ovarian): 36.6 µM
TGI (UACC-257 melanoma): > 100 µM
TGI (U251 CNS): > 100 µM
TGI (KM12 colon): 42 µM
TGI (SK-MEL-28 melanoma): 56.7 µM
TGI (OVCAR-5 ovarian): > 100 µM
TGI (SW-620 colon): > 100 µM
TGI (SNB-19 CNS): > 100 µM
TGI (HOP-92 NSCLC): 52.9 µM
TGI (MDA-MB-435): 56.3 µM
TGI (UACC-62 melanoma): 62.1 µM
TGI (SK-MEL-5 melanoma): 26.8 µM
TGI (MDA-N): 52.6 µM
TGI (MOLT-4 leukemia): > 100 µM
TGI (HOP-62 NSCLC): 32.9 µM
TGI (CAKI-1 renal): 75.9 µM
TGI (HCT-116 colon): 23.6 µM
TGI (SNB-75 CNS): 86.3 µM
TGI (HL-60(TB) leukemia): 73.4 µM
TGI (A498 renal): > 100 µM
TGI (SR leukemia): > 100 µM
TGI (NCI-H226 lung): 49.7 µM
